Entries after “also recorded” stand apart in the source; their conditions may differ. Read-outs that look alike come from different tables or passages of the source. Peptide text beside a SMILES is read from it.
Tests used:
P. aeruginosa K385 = settings: cited from earlier work
[1] = test system: P. aeruginosa strain 799/61; experiment: [3H]-tetracycline accumulation assay, strain 799/61 without efflux pumps; format: cell-based, Pseudomonas aeruginosa; settings: CCCP added
Experimental: A tetracycline accumulation assay was set up to measure the activity of efflux pumps in P. aeruginosa. The assay measures the accumulation of [3H]-tetracycline in bacteria and was optimized for measuring tetracycline accumulation in P. aeruginosa.
A new tetracycline steady state equilibrium is reached when CCCP is added to the cell suspension and pH equilibrates in both sides of the membrane.

[2] = test system: P. aeruginosa strain K385; experiment: microbe, parasite or virus in culture; format: cell-based; settings: Pseudomonas aeruginosa, K385, 20 h, read-out: growth inhibition in the absence of ciprofloxacin
P. aeruginosa K799/61 [3] = experiment: Susceptibility to tetracycline and ciprofloxacin, pump deficient mutant K799/61
E. coli HN818 = experiment: Susceptibility to acridine orange, AcrAB pump deficient strain HN818; format: cell-based; settings: acridine orange alone
Description: The effect of L-phenylalanyl-L-arginyl-β-naphthylamide was also studied on an AcrAB pump deficient mutant of E. coli which was obtained by transposon mutagenesis in the laboratory of H. Nikaido.

[4] = test system: wild-type strains of P. aeruginosa; settings: cited from earlier work
P. aeruginosa K799/61 [5] = settings: mutant strain k799/61; cited from earlier work
mexA-mexB-oprM = settings: insertion mutagenesis; cited from earlier work
[6] = test system: P. aeruginosa PAO1, PAO4098E, K385 and 799/61; experiment: Tetracycline accumulation in four P. aeruginosa strains (basal level); format: cell-based, Pseudomonas aeruginosa
Description: Alternatively, efflux pumps are identified by their ability to lower the accumulation of a substrate in a cell. Efflux pumps involved in drug resistance can be identified because they confer resistance to antibiotics. Efflux pumps involved in multidrug resistance in bacteria usually give an intermediate level of resistance to a broad range of antibiotics. Specific mechanism of resistance, including specific efflux pumps, give a much higher level of resistance to one antibiotic or a group of structurally related antibiotics. […] To identify whether an efflux pump is involved in antibiotic resistance in a given strain, accumulation experiments should be performed using antibiotics that it is suspected are exported by the efflux pump. The protein pattern in electrophoresis of cytoplasmic membrane proteins should be studied to identify the overexpression of a protein or the appearance of a new band in the protein pattern using gel electrophoresis. For Gram-negative bacteria, the outer membrane proteins should also be studied. Since efflux pumps are a common occurrence in most bacteria, the basal level of antibiotic susceptibility of a wild type might be caused by naturally occurring efflux pumps. […] Mutants that overexpress the pumps can be isolated using antibiotic-containing media. These mutants will be more resistant to antibiotics and will accumulate lower levels of antibiotics. […]

AcrAE efflux system = settings: cited from earlier work

In the case of `c1ccc(-c2ccccn2)nc1` [2,2'-dipyridyl], the “susceptibility associated with production of a 50-kDa outer membrane protein” value (P. aeruginosa K385) is listed as “decreased susceptibility”.

For `N#CC(C#N)=NNc1cccc(Cl)c1` [CCCP, carbonyl cyanide m-chlorophenylhydrazone], the tetracycline accumulation [1] was “lowered the tetracycline accumulation”.

In the case of `N=C(N)NCCC[C@H](NC(=O)[C@@H](N)Cc1ccccc1)C(=O)Nc1ccc2ccccc2c1` [L-phenylalanyl-L-arginyl-β-naphthylamide] (HELM PEPTIDE1{F.R.[c1ccc2cc(N[*:1])ccc2c1]}$$$$V2.0), the inhibition at 10 µg/mL [2] is reported as 1% and the “effect on susceptibility to tetracycline and ciprofloxacin” value (P. aeruginosa K799/61 [3]) is reported as “no effect”.

With `CN(C)c1ccc2cc3ccc(N(C)C)cc3nc2c1` [acridine orange] the “susceptibility of HN818 to acridine orange versus parent strain” value (E. coli HN818) was “more susceptible to acridine orange than the parent strain”.

In the case of `O=C(N[C@H](CO)[C@H](O)c1ccc([N+](=O)[O-])cc1)C(Cl)Cl` [chloramphenicol], the “efflux by wild-type strains” value [4] is given as “very effectively”, the “capability of pumping out” value (P. aeruginosa K799/61 [5]) is given as “essentially incapable of pumping out” and the “susceptibility of the strain with inactivated operon” value (mexA-mexB-oprM) is given as “almost as susceptible as E. coli”.

For `CCn1cc(C(=O)O)c(=O)c2cc(F)c(N3CCNCC3)cc21` [norfloxacin], the “efflux by wild-type strains” value [4] is given as “very effectively”.

In the case of `CN(C)C1C(=O)C(C(N)=O)=C(O)C2(O)C(=O)C3=C(O)c4c(O)cccc4C(C)(O)C3CC12` (stereo not shown) [tetracycline], the “tetracycline accumulation, efflux pump overproducer strains” value ([6]; PAO4098E and K385) is listed as “accumulated lower amounts of tetracycline”, the “intracellular accumulation of tetracycline, strain 799/61 versus others” value ([6]; strain 799/61) is listed as “highest internal concentration; also recorded: accumulated more tetracycline than the wild type PAO1” and the “efflux by wild-type strains” value [4] is listed as “very effectively”. For the same compound, the “capability of pumping out” value (P. aeruginosa K799/61 [5]) was “essentially incapable of pumping out” and the “susceptibility of the strain with inactivated operon” value (mexA-mexB-oprM) was “almost as susceptible as E. coli”.

For acriflavine, the “steady-state accumulation of acriflavine” value (AcrAE efflux system; acrA mutant vs wild type) is given as “increases at least fivefold” and the “steady-state accumulation of acriflavine” value (AcrAE efflux system; wild-type acrA+ strain) is given as “extremely low”.
